Like-named read-outs stand apart in the source and are kept apart here.
Molecular target: T1, α1A-ARs (Homo sapiens, UniProt P35348)
T1 sequence (P35348 1-466): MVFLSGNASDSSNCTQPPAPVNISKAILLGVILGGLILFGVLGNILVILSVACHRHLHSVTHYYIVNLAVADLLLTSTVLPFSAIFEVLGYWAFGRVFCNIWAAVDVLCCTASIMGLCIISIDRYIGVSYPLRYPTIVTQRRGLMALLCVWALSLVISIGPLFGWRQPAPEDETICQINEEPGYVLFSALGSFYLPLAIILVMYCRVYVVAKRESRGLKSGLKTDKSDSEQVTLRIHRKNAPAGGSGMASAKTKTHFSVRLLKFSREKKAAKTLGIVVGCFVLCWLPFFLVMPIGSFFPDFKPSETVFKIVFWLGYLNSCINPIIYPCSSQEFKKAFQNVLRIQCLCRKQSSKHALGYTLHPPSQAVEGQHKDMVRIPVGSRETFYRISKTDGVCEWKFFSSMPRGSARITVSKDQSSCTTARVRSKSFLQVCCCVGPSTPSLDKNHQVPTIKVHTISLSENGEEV
Assay: Calcium flux assay (Calcium 6 dye) in cells expressing an α1-AR
Type: cell-based
Details: for Emax: read-out: Average Emax (% epi); for EC50: read-out: Average pEC50 (converted)
Description: Calcium flux experimental design: alpha-1 adrenergic receptors (α1-ARs) couple to Gq proteins, which results in downstream activation of phospholipase C and release of calcium from intracellular stores. Intracellular calcium increase upon α1-AR activation can be detected by Calcium 6 dye.
Cell preparation: cells expressing an α1-AR were washed in warmed phosphate-buffered saline to remove medium and harvested using versene (Caisson Labs, catalog #EDL01).
Media was removed from cells by tapping plates upside-down on absorbent wipes, followed by 15 second upside-down 50×g centrifugation, again on absorbent wipes. 12 μL cell dye solution was added to cells using a reagent dispenser (Integra viaFILL) and cells were incubated for 90 minutes at 37° C., 5% CO2.
Compound preparation: candidate alpha-adrenergic compounds, dissolved to 10 mM in DMSO, were diluted in assay buffer (HBSS/HEPES containing 2 mM CaCl2) and 2 mM probenecid sodium salt). […] On all assay plates, vehicle (DMSO) and positive control (10 μM epinephrine) conditions were included on the plate, as well as a dose-response curve of epinephrine. […] 384 well compound plates were centrifuged briefly at 250×g, sealed (Axygen PCR-SP) and incubated at 37° C. until the 90 minute cell dye incubation was complete.
Calcium 6 stained cells and 384 well compound plates were loaded onto the Flexstation and incubated on the machine for 5 minutes before initiating the assay.
For each assay well, baseline Calcium 6 fluorescence was detected for 18 seconds prior to 12 μL compound addition at 12 μL per second. Changes in Calcium 6 fluorescence were detected for a further 22 seconds, for a total read time of 40 seconds. All detection was performed with medium gain sensitivity, bottom read, with 6 flashes per read.
Data analysis: for calcium flux, analysis of maximum change from baseline over the 40-second read time was determined using Softmax Pro and data was exported as raw text files. Potency estimates (EC50) were derived from dose response curves (maximum change from baseline versus the log concentration of test compound) fit by four-parameter nonlinear regression using Graphpad Prism. Efficacy was determined by comparing the magnitude of the test compound signal window (fitted curve max−min) with the signal window of the full agonist control, epinephrine. […] All experiments were repeated a minimum of three times, with the average (mean) potency and maximum effect relative to the within-plate full agonist dose-response comparator reported.

[1] = α1A-AR calcium flux, mean of at least three experiments
[2] = α1A-AR calcium flux, relative to full agonist epinephrine, mean of at least three experiments

Emax [2]	SMILES	Emax	EC50 [1]
–	Clc1cccc2c(C3CC3)cn(CC3=NCCN3)c12 [Compound 3]	21 to 60%	< 9.77 nM
< 20%	Clc1cn(-c2cn[nH]c2)c2cc(CC3=NCCN3)ccc12 [Compound 4]	–	> 1000 nM
–	Cc1cn(CC2=NCCN2)c2c(Cl)ccc(C(C)C)c12 [Compound 5]	> 61%	10 to 977 nM
–	COc1ccc(C(C)C)c2ccn(CC3=NCCN3)c12 [Compound 7]	> 61%	10 to 977 nM
–	Fc1cc(Cl)c2c(c1)c(C1CC1)cn2CC1=NCCN1 [Compound 8]	< 20%	10 to 977 nM
< 20%	CC(C)c1ccc(Cl)c2c1c(S(C)(=O)=O)cn2CC1=NCCN1 [Compound 9]	–	> 1000 nM
–	Cc1cc2c(C(C)C)ccc(Cl)c2n1CC1=NCCN1 [Compound 10]	> 61%	10 to 977 nM
–	Fc1cc(F)c2c(c1)c(C1CC1)cn2CC1=NCCN1 [Compound 11]	> 61%	< 9.77 nM
–	Fc1ccc2c(C3CC3)cn(CC3=NCCN3)c2c1Cl [Compound 12]	21 to 60%	< 9.77 nM
–	Clc1cccc2ccn(CC3=NCCN3)c12 [Compound 13]	21 to 60%	10 to 977 nM
< 20%	Clc1cccc2c(-c3cccnc3)nn(CC3=NCCN3)c12 [Compound 14]	–	> 1000 nM
–	Clc1cccc2cnn(CC3=NCCN3)c12 [Compound 15]	< 20%	> 1000 nM
–	CC(C)(C)c1nn(CC2=NCCN2)c2c(Cl)cccc12 [Compound 16]	< 20%	> 1000 nM
–	Cc1cn(CC2=NCCN2)c2c(Cl)cccc12 [Compound 17]	> 61%	< 9.77 nM
–	N#Cc1cn(CC2=NCCN2)c2c(Cl)cccc12 [Compound 18]	> 61%	10 to 977 nM
–	Cc1cc2cccc(Cl)c2n1CC1=NCCN1 [Compound 19]	< 20%	> 1000 nM
–	Clc1nn(CC2=NCCN2)c2c(Cl)cccc12 [Compound 20]	> 61%	10 to 977 nM

Emax [2]	SMILES	Emax	EC50 [1]
–	Fc1cc(Cl)c2c(c1)c(Cl)nn2CC1=NCCN1 [Compound 23]	> 61%	10 to 977 nM
–	Fc1ccc2c(Cl)nn(CC3=NCCN3)c2c1Cl [Compound 24]	> 61%	10 to 977 nM
–	FC(F)(F)c1nn(CC2=NCCN2)c2c(Cl)cccc12 [Compound 25]	21 to 60%	10 to 977 nM
–	Fc1cccc2c(Cl)nn(CC3=NCCN3)c12 [Compound 26]	21 to 60%	10 to 977 nM
–	FC(F)(F)c1cccc2c(Cl)nn(CC3=NCCN3)c12 [Compound 27]	> 61%	10 to 977 nM
–	Cc1ccnc2c(Cl)nn(CC3=NCCN3)c12 [Compound 30]	> 61%	10 to 977 nM
–	Clc1ccc2c(c1)c(Cl)nn2CC1=NCCN1 [Compound 31]	21 to 60%	> 1000 nM
–	Clc1ccc2c(Cl)nn(CC3=NCCN3)c2c1 [Compound 32]	> 61%	10 to 977 nM
> 61%	Clc1nn(CC2=NCCN2)c2c(-n3cccc3)cccc12 [Compound 33]	–	10 to 977 nM
21 to 60%	Clc1nn(CC2=NCCN2)c2c(-c3ccccc3)cccc12 [Compound 34]	–	10 to 977 nM
21 to 60%	Clc1nn(CC2=NCCN2)c2c(-n3cccn3)cccc12 [Compound 36]	–	10 to 977 nM
> 61%	FC(F)(F)Oc1cccc2c(Cl)nn(CC3=NCCN3)c12 [Compound 37]	–	10 to 977 nM
–	CC(C)Oc1cccc2c(Cl)nn(CC3=NCCN3)c12 [Compound 38]	21 to 60%	> 1000 nM
–	CC(F)(F)c1cccc2c(Cl)nn(CC3=NCCN3)c12 [Compound 39]	21 to 60%	10 to 977 nM
–	CCc1cccc2c(Cl)nn(CC3=NCCN3)c12 [Compound 40]	> 61%	10 to 977 nM
21 to 60%	Clc1cccc2c(-c3ccccc3)nn(CC3=NCCN3)c12 [Compound 42]	–	> 1000 nM
–	FC(F)c1cccc2c(Cl)nn(CC3=NCCN3)c12 [Compound 43]	< 20%	> 1000 nM

Source: patent US20250188060A1, “ALPHA1A-ADRENERGIC RECEPTOR AGONISTS AND METHODS OF USE” (CuraSen Therapeutics, Inc., priority 2022, published 2025)
